According to patent US5340808A, “Fused pyridazinoquinazolone derivatives as neurotrophic agents” (Warner Lambert Company, priority 1992, dated 1994):
Values belong to the molecule of their own block, whether it stands above or below them.

What was measured:
[1] = target: T1, p75 receptor (truncated form, residues 1-222) (Homo sapiens, UniProt P08138); assay: Inhibition of 125I-NGF binding to the NGF p75 receptor; conditions: 2 nM 125I-NGF, 2 hours at room temperature; for IC50: read-out: Inhibition of 125I-NGF Binding to p 75 (IC50); for inhibition at 10 µM: at 10,000 nM, read-out: Inhibition of 125I-NGF Binding to p 75 (% inh)
T1 construct: truncated form (residues 1-222, molecular weight=56 KDa) of the p75 receptor; biotin (chemical label, immobilised on streptavidin); purchased Chiron Corporation, Emeryville, Calif; (also commercially available from Austral Biologicals, Inc., San Diego, Calif.)
T1 sequence (P08138 29-250): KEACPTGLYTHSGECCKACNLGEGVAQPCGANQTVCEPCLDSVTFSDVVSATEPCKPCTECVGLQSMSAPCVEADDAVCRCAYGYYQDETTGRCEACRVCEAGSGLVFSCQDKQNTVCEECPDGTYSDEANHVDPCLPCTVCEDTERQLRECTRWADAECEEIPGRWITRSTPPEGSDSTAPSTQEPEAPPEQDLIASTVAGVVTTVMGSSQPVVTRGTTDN
Method: Binding assays of novel compounds to the NGF p75 receptor are performed using a truncated form (residues 1-222, molecular weight=56 KDa) of the p75 receptor, originally obtained from Chiron Corporation, Emeryville, Calif., but also commercially available from Austral Biologicals, Inc. (San Diego, Calif.), on plastic 96 well microtiter plates (Immulon II Dynatech). The wells are coated with 50 μl/well of 20 μg/ml streptavidin in a […] (DPBS). The plates are then incubated at room temperature for 6 hours. The excess streptavidin is then poured out, the wells are washed with a 0.1% solution of bovine serum albumin (BSA) in DPBS. To each well is then added […] of a DPBS solution containing the truncated p75 receptor, which has previously been reacted with biotin by standard procedures. The plates are then incubated at room temperature for 2 hours, and washed with 0.2% BSA/DPBS. To each well is added 98 μl of 2 nM ^125 I-NGF, followed by 2 μl/well of a concentration of test compound that is 50 times greater than the desired final test concentration. The plates are incubated for 2 hours at room temperature. […]

[2] = tested on: basal forebrain cholinergic neurons; conditions: cited from earlier work
sensory neuropathies = conditions: cited from earlier work
Alzheimer's disease = conditions: recent clinical findings in humans; cited from earlier work
[3] = tested on: substantia nigra dopaminergic neurons; conditions: cited from earlier work

IC50 [1]: 4000 nM
Molecule: O=C(O)c1ccc2nc3ccc(Cl)cc3c(=O)n2n1 [8-Chloro-10-oxo-10H-pyridazino[6,1-b]quinazoline-2-carboxylic acid]

inhibition at 10 µM [1]: 39%
Molecule: O=C(O)c1ccc2nc3ccccc3c(=O)n2n1 [10-Oxo-10H-pyridazino[6,1-b]quinazoline-2-carboxylic acid]

IC50 [1]: 2190 nM
Molecule: O=C(O)c1ccc2nc3ccc(C(=O)O)nn3c(=O)c2c1 [10-Oxo-10H-pyridazino[6,1-b]quinazoline-2,8-dicarboxylic acid]

inhibition at 10 µM [1]: 46%
Molecule: O=C(O)c1ccc2c(=O)n3nc(C(=O)O)ccc3nc2c1 [10-Oxo-10H-pyridazino[6,1-b]quinazoline-2,7-dicarboxylic acid]

IC50 [1]: 4900 nM
Molecule: Cc1ccc2c(=O)n3nc(C(=O)O)ccc3nc2c1 [7-Methyl-10-oxo-10H-pyridazino[6,1-b]quinazoline-2-carboxylic acid]

IC50 [1]: 1500 nM
Molecule: COc1ccc2nc3ccc(C(=O)O)nn3c(=O)c2c1 [8-Methoxy-10-oxo-10H-pyridazino[6,1-b]quinazoline-2-carboxylic acid]

IC50 [1]: 344 to 369 nM
Molecule: O=C(O)c1ccc2nc3cc4ccccc4cc3c(=O)n2n1 [12-Oxo-12H-benzo[g]pyridazino[3,2-b]quinazoline-2-carboxylic acid]

IC50 [1]: 238 nM
Molecule: Cc1ccc(C(=O)Nc2ccc3nc4ccc(C(=O)O)nn4c(=O)c3c2)cc1 [8-[(4-Methylbenzoyl)amino]-10-oxo-10H-pyridazino [6,1-b]quinazoline-2-carboxylic acid]

IC50 [1]: 1800 nM
Molecule: Cc1ccc2nc3ccc(C(=O)O)nn3c(=O)c2c1 [8-Methyl-10-oxo-10H-pyridazino[6,1-b]quinazoline-2-carboxylic acid]

Molecule: NGF: β-subunit, a dimer consisting of two equivalent monomers of approximately 13,000 dalton molecular weight
behavioral impairment associated with atrophied or lesioned basal forebrain cholinergic neurons ([2]; animals with atrophied or lesioned basal forebrain cholinergic neurons): reverse the associated behavioral impairment
ability of brain cholinergic neurons to survive a chemical insult ([2]; chemical insult): enhances the ability of brain cholinergic neurons to survive a chemical insult
degeneration of neurons in the medial septal nucleus after lesion of the septo-hippocampal pathway ([2]; into the cerebrospinal fluid via a miniosmotic pump): This neuronal degeneration can be prevented
development of large-fiber sensory neuropathies from cisplatin, and animal model of diabetes-induced neuropathy (sensory neuropathies; cisplatin, animal model of diabetes-induced neuropathy): efficacious
development of small-fiber sensory neuropathies from taxol (sensory neuropathies; taxol): prevents the development of small-fiber sensory neuropathies
usefulness in the treatment of AD (Alzheimer's disease): treatment with NGF is useful in the treatment of AD

IC50 [1]: 67 nM
Molecule: O=C(Nc1ccc2nc3ccc(C(=O)O)nn3c(=O)c2c1)c1ccccc1 [8-(Benzoylamino)-10-oxo-10H-pyridazino[6,1-b]-quinazoline-2-carboxylic acid]

inhibition at 10 µM [1]: 42%
Molecule: CC(=O)Nc1ccc2c(=O)n3nc(C(=O)O)ccc3nc2c1 [7 -Acetylamino-10-oxo-10H-pyridazino[6,1-b]quinazoline-2-carboxylic acid]

B1: BDNF: member of the neurotrophins, a family of related neurotrophic peptides (protein, UniProt P23560 19-247, looked up)
Neurotrophic factor BDNF …: APMKEANIRGQGGLAYPGVRTHGTLESVNGPKAGSRGLTSLADTFEHVIEELLDEDQKVRPNEENNKDADLYTSRVMLSSQVPLEPPLLFLLEEYKNYLDAANMSMRVRRHSDPARRGELSVCDSISEWVTAADKKTAVDMSGGTVTVLEKVPVSKGQLKQYFYETKCNPMGYTKEGCRGIDKRHWNSQCRTTQSYVRALTMDSKKRIGWRFIRIDTSCVCTLTIKRGR
neurotrophic effects on substantia nigra dopaminergic neurons [3]: exerts neurotrophic effects on substantia nigra dopaminergic neurons
